Source: paper PMC10996005, “Identification and Development of Cyclic Peptide Inhibitors of Hypoxia Inducible Factors 1 and 2 That Disrupt Hypoxia-Response Signaling in Cancer Cells” (Journal of the American Chemical Society, 2024)
Where a SMILES comes first, the peptide text is derived from it. [ ]: non-standard residue; d: D form. Phe(4-I) = N[C@@H](Cc1ccc(I)cc1)C(=O)O

Legend:
[1] = tested on: CAIX and VEGF genes in MCF-7 cells; test: qPCR of hypoxia-response genes in MCF-7 cells; type: cell-based; conditions: hypoxic MCF-7 cells, 50 μM, vs DMSO-treated hypoxic cells
Protocol: (§1) The effect of our lead inhibitor on hypoxia-response signaling was measured by qPCR in cancer cell lines. Cells were treated with either 2 μM of an analogue of the HIF-2-specific inhibitor belzutifan, PT2399 (control), or 50 μM of cyclo-CRLII(4-iodo)F, incubated in hypoxia for […], and the levels of the hypoxia-response genes CAIX([41],[42]) and VEGF([43]) were measured by qPCR. We observed a 51% drop in CAIX transcription and a 43% drop in VEGF transcription in hypoxic MCF-7 (breast cancer) cells treated with 50 μM of cyclo-CRLII(4-iodo)F versus hypoxic MCF-7 cells treated with DMSO only (Figure 6e). […] We also observed a 49% drop in CAIX expression in hypoxic HeLa (cervical cancer) cells treated with cyclo-CRLII(4-iodo)F (Figure S9b). […] We observed a 35% drop in HIF-2-driven VEGF transcription in 786-O cells treated with 50 μM of cyclo-CRLII(4-iodo)F compared to a 50% decrease in 786-O cells treated with PT2399. […]
(§2) Realtime PCR (qPCR) Assay
Cells were plated on 6cm dishes at 80% confluency and incubated overnight under normoxic conditions. The cells were then treated with compound and incubated for 18 hours in hypoxic conditions. After treatment, the cells were washed with PBS and lysed under hypoxic conditions. The total RNA was extracted from the cells using a commercial RNA extraction kit (Fisher Scientific) following the manufacturer's instructions. A commercial reverse transcription kit (Promega) was used to generate cDNA. The MyTaq™ Mix master mix and appropriate primers targeting CAIX and VEGF were used to perform the qPCR reaction using a qPCR machine (Bio-Rad).

[2] = tested on: HIF-driven expression of YFP in T-REx-293 reporter cell line; test: HRE-YFP reporter assay in hypoxia; type: cell-based, human
Source text: Following in vitro characterization and optimization of binding, we next assessed the effect of our cyclic peptides in mammalian cells. A cell line with a stably integrated reporter was constructed, in which the expression of yellow fluorescent protein (YFP) was placed under the control of a HRE. Thus, hypoxia would be expected to increase YFP expression (and subsequent fluorescence) in these cells, whereas treatment with a cell-permeable HIF inhibitor would be expected to reduce this fluorescence signal. A fusion cassette was designed containing the YFP gene preceded by three copies of the HRE sequence. This cassette was stably integrated into T-REx-293 cells as previously described.[12] […] The effect of this compound on the viability of T-Rex-293 was assessed with no effect observed at doses up to 75 μM (Figure S9a). […] It should be noted that the relative activity of each compound in this assay will be a combination of its cell permeability and HIF-inhibiting activity. […] We therefore continued to further characterize the cell activity of the 4-iodo-phenylalanine derivative. […]
Generation of HRE-eYFP integrated cell line
The Flp-In System (Fisher) was used to generate a constitutive expression cell line that expresses eYFP under the control of the VEGF HRE. The coding sequence of the yellow fluorescent protein (eYFP) was cloned downstream of the VEGF HRE sequence in the pcDNA5 plasmid, such that the entire cassette was under the regulation of a Tet-On gene expression system. The plasmid was transfected into a human embryonic kidney cell line (Flp-In™-293) and integrated using the manufacturer’s protocol.
Activity Assessment using Flp-In-HRE-eYFP cell line
The Flp-In-HRE-eYFP cells were plated on 24-well plates at 80% confluency and incubated overnight under normoxic conditions. The cells were then treated with different concentrations of compound and incubated for 18 hours under hypoxic conditions. After treatment, the cells were washed with PBS and lysed to extract the total cellular protein. The cell extract was cold centrifuged for 20 minutes at 14,000 RPM. An equal amount of the supernatant from each treatment was plated on a 96-well plate, and the emission of eYFP was measured using a microplate reader. […]

[3] = target: T1, HIF-2α PAS-B domain (Homo sapiens, UniProt Q99814); test: MST binding to the PAS-B domain of HIF-2α; conditions: MST KD ratio
T1 construct: made in house
Protocol: All reagents were purchased from Fisher Scientific or Sigma Aldrich UK unless specified otherwise.
Restriction enzymes and microbiology reagents were purchased from New England Biolabs Inc., Fisher Scientific (UK) or Promega (UK) and were used as directed by the manufacturer. Primers and oligonucleotides were synthesised by Integrated DNA Technologies (UK). DNA sequencing was carried out by Eurofins MWG Operon (Germany).
Construction of the RTHS and SICLOPPS library, screening, purification of recombinant HIF proteins, and the PLA was conducted as previously described in Miranda et al., J. Am. Chem. Soc., 2013, 135(28); […]
Protein labelling with MST dye
Protein was buffer exchanged from storage buffer into labelling buffer (0.1 M NaHCO3, pH 8.5) using a PD spintrap G-25 column (GE healthcare). The protein concentration was then adjusted to 20 µM.
The commercially sourced MST dye (NanoTemper) was prepared as a 470 µM solution in DMSO, which was then further diluted to 60 µM using labelling buffer. To the protein solution was added an equal volume of dye solution, and the labelling reaction was left for 1 hour in the dark at room temperature.
The labelled protein was separated from unreacted dye by elution through a PD minitrap G-25 column (GE healthcare). Labelled protein was then aliquoted and stored at -80 °C. Extent of labelling was measured by the absorbance obtained using the UV-vis mode on a NanoDrop ND-1000 Spectrophotometer (NanoDrop Technologies, USA).
Labelled protein was thawed on ice and diluted to 50 nM in assay buffer containing 50 mM Tris pH 8.0, 150 mM NaCl, 5% (v/v) glycerol, 1 mM TCEP and 0.05% TWEEN-20. The protein solution was then centrifuged at 12000 rpm for 15 minutes at 4 °C and left on ice. Compounds were prepared and serially diluted in DMSO at 10x assay concentration, before diluting to 2x assay concentration in assay buffer.
The 2x compound solutions were then mixed 1:1 (v/v) with 50 nM labelled protein solution and left to incubate for 1 hour at room temperature. Solutions were then loaded into Monolith NT.115 Premium Capillaries (NanoTemper) and placed in the sample tray. MST experiments were carried out

[4] = tested on: VEGF gene in 786-O cells; test: qPCR of HIF-2-driven VEGF in 786-O cells; type: cell-based; conditions: 50 μM
Protocol: as §1, §2
Cells were plated on 6cm dishes at 80% confluency and incubated overnight under normoxic conditions. The cells were then treated with compound and incubated for 18 hours in hypoxic conditions. After treatment, the cells were washed with PBS and lysed under hypoxic conditions. The total RNA was extracted from the cells using a commercial RNA extraction kit (Fisher Scientific) following the manufacturer's instructions. […]

T1 sequence (Q99814 240-350 limits assumed): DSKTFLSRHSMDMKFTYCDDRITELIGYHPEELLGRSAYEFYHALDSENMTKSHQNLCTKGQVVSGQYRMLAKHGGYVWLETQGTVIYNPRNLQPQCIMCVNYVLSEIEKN

`CC[C@H](C)[C@@H]1NC(=O)[C@H](CC(C)C)NC(=O)[C@H](CCCNC(=N)N)NC(=O)[C@H](CS)NC(=O)[C@H](Cc2ccc(I)cc2)NC(=O)[C@H]([C@@H](C)CC)NC1=O` [cyclo-CRLII(4-iodo)F] (cyclo(CRLII[Phe(4-I)])) was tested, and the “drop in CAIX transcription” value [1] was 51%, the “drop in VEGF transcription” value [1] was 43% and the EC50 ([2]; T-REx-293 HRE-YFP reporter, 18 hours, read-out: EC50 for reduction in hypoxia-mediated YFP fluorescence) was 30.7 ± 2.1 µM. For the same compound, the “relative activity among the 9 most potent cyclo-CRLIIF derivatives on YFP expression” value ([2]; T-Rex-293 HRE-YFP reporter) was “most active”, the “improvement in KD for HIF-2α PAS-B compared to the parent cyclic peptide” value [3] was 6.5 fold and the “drop in HIF-2-driven VEGF transcription” value [4] was 35%.
